The numbers were not newly measured in patent EP1450788B1, “USE OF COUMARIN OR ITS HYDROXY DERIVATIVE FOR THE TREATMENT OF MEDIUM OR SEVERE VASCULAR AND/OR LYMPHATIC EDEMA” (priority 2001, dated 2003), which cites them from elsewhere.

Data set [1] has as its system lymphoedema of the upper limbs. Particulars: 90 mg/day versus 135 mg/day; lymphoedema of the upper limbs secondary to surgery and irradiation for breast cancer.
For a further data set, the system named is hepatic tissue. Particulars: oral doses of about 200 mg/day.

On to `O=c1ccc2ccc(O)cc2o1` [7-hydroxy-coumarin, 7-hydroxycoumarin], for which the “haematic levels by the transdermic route” value (transdermal administration) was “a decrease of the haematic levels”.
For the compound `O=c1ccc2ccccc2o1` [coumarin, 5,6-benzopyran-2-one], in data set [1], the “clinical efficacy (apparent benefits of the two coumarin dosages)” value is “No difference was found”. The “cytosolytic hepatocytic enzymes in the plasma (biochemical markers of the hepatic damage)” value with hepatic tissue is reported as “high concentrations”. Moreover, the “haematic levels, transdermal route relative to oral route” value (transdermal administration versus oral route) is given as 10 fold.
